This is an account of results in patent US9732075B2, “Benzimidazole-proline derivatives” (IDORSIA PHARMACEUTICALS LTD, priority 2012, dated 2017).

One test concerns the target human orexin-1 receptor (Homo sapiens (Human), UniProt O43613). Nature of the test: In vitro assay: intracellular calcium measurements (FLIPR), antagonistic activity. In kind it is cell-based. The conditions noted are these: CHO cells expressing human orexin-1 receptor, orexin-A agonist, geometric mean, read-out: IC50 Ox1. In outline:
(§1)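 Orexin-A-evoked calcium rise (3 nM final, roughly EC70) was recorded with fluo-4 in recombinant CHO cells, human receptor subtype 1 or 2.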
A general note: Calcium assays in cells follow changes in intracellular calcium, usually with a dye or a luminescent sensor.

In a further test the target is human orexin-2 receptor (Homo sapiens (Human), UniProt O43614). Described as above. The format is cell-based. The settings on record: CHO cells expressing human orexin-2 receptor, orexin-A agonist, geometric mean, read-out: IC50 Ox2. In outline: as §1
Chain of human orexin-2 receptor (O43614 whole entry): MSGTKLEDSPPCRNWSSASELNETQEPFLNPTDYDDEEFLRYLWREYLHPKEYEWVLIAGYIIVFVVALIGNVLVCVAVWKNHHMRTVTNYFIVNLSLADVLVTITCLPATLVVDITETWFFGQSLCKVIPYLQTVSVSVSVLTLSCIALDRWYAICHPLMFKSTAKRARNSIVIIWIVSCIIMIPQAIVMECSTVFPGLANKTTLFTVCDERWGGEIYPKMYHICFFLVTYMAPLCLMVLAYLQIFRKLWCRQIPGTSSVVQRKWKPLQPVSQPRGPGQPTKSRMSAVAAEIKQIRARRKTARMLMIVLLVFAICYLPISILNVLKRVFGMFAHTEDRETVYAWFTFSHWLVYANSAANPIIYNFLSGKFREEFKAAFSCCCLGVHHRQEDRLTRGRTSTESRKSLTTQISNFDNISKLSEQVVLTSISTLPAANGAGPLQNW

Chain of human orexin-1 receptor (O43613 whole entry): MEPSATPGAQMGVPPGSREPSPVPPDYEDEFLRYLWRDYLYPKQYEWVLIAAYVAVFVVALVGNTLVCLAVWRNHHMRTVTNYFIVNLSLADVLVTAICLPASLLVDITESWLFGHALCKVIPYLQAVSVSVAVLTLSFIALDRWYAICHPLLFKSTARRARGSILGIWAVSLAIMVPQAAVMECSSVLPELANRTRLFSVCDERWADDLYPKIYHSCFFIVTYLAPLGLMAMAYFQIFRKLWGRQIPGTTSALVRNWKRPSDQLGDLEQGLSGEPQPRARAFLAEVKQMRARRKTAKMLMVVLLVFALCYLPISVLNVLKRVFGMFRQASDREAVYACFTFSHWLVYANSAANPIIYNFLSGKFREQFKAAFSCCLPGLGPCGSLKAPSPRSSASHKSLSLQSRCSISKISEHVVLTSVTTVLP

Broadly, the IC50 is the point on the concentration scale where inhibition reaches its midpoint. On to `Cc1nc(C(=O)N2CCC[C@@]2(C)c2nc3c(C)cccc3n2C)c(-c2cccc(Cl)c2)s1` [Ex. 7.5], for which the IC50 on human orexin-1 receptor came out at 9 nM; at human orexin-2 receptor it was 2 nM.
For `CCn1c([C@]2(C)CCCN2C(=O)c2nc(C)sc2-c2cccc(Cl)c2)nc2c(C)cccc21` [Ex. 7.6], in that order: 5 nM and 6 nM.
`Cc1nc(C(=O)N2CCC[C@@]2(C)c2nc3c(C)c(Cl)ccc3n2C)c(-c2ccccc2)s1` [Ex. 7.7]: the IC50 is 2 nM on human orexin-1 receptor and 3 nM on human orexin-2 receptor.
For `CCn1c([C@]2(C)CCCN2C(=O)c2nc(C)sc2-c2ccccc2)nc2c(C)c(Cl)ccc21` [Ex. 7.8], in that order: 2 nM and 4 nM.
For `COc1cc2nc([C@]3(C)CCCN3C(=O)c3cc(C)ccc3-n3nccn3)n(C)c2cc1OC` [Ex. 7.9], in that order: 28 nM and 28 nM.
In the same order, the values of `CCn1c([C@]2(C)CCCN2C(=O)c2cc(C)ccc2-n2nccn2)nc2cc(OC)c(OC)cc21` [Ex. 7.10] are 33 nM and 42 nM.
With `Cc1ccc(C(=O)N2CCC[C@@]2(C)c2nc3cc(C)c(C)cc3n2C)c(-n2nccn2)c1` [Ex. 7.11], the IC50 on human orexin-1 receptor worked out at 17 nM; on human orexin-2 receptor, 720 nM.
Regarding `CCn1c([C@]2(C)CCCN2C(=O)c2ccc(C)cc2-n2nccn2)nc2cc(C)c(C)cc21` [Ex. 7.12], the IC50 on human orexin-1 receptor was found to be 15 nM; at human orexin-2 receptor, 52 nM.
In the same order, the values of `COc1cc2nc([C@]3(C)CCCN3C(=O)c3cc(C)c(C)cc3-n3nccn3)n(C)c2cc1OC` [Ex. 7.13] are 21 nM and 49 nM.
For `CCn1c([C@]2(C)CCCN2C(=O)c2cc(C)c(C)cc2-n2nccn2)nc2cc(OC)c(OC)cc21` [Ex. 7.14], in that order: 23 nM and 50 nM.
In the same order, the values of `Cc1ccc(-c2ccc(F)cc2)c(C(=O)N2CCC[C@@]2(C)c2nc3cc(C)c(C)cc3n2C)c1` [Ex. 7.15] are 11 nM and 65 nM.
On to `CCn1c([C@]2(C)CCCN2C(=O)c2cc(C)ccc2-c2ccc(F)cc2)nc2cc(C)c(C)cc21` [Ex. 7.16], for which the IC50 on human orexin-1 receptor came out at 8 nM; on human orexin-2 receptor it was 21 nM.
For `Cc1cc(C(=O)N2CCC[C@@]2(C)c2nc3cc(C)c(C)cc3n2C)c(-n2nccn2)cc1C` [Ex. 7.17], in that order: 4 nM and 19 nM.
For `Cc1ccc(-n2nccn2)c(C(=O)N2CCC[C@@]2(C)c2nc3c(C)c(Cl)ccc3n2C)n1` [Ex. 7.18], in that order: 1 nM and 4 nM.
For `Cc1c(Cl)ccc2c1nc([C@]1(C)CCCN1C(=O)c1ccccc1-n1nccn1)n2C` [Ex. 7.19], in that order: 5 nM and 8 nM.
`CCn1c([C@]2(C)CCCN2C(=O)c2cc(C)ccc2-n2nccn2)nc2c(C)c(Cl)ccc21` [Ex. 7.21]: the IC50 amounted to 1 nM on human orexin-1 receptor and 2 nM at human orexin-2 receptor.
In the same order, the values of `Cc1c(Cl)ccc2c1nc([C@]1(C)CCCN1C(=O)c1cc(Cl)ccc1-n1nccn1)n2C` [Ex. 7.22] are 1 nM and 4 nM.
For `COc1ccc(-n2nccn2)c(C(=O)N2CCC[C@@]2(C)c2nc3c(C)c(Cl)ccc3n2C)c1` [Ex. 7.23], in that order: 1 nM and 3 nM.
Regarding `COc1cc2nc([C@]3(C)CCCN3C(=O)c3cc(Cl)ccc3-n3nccn3)n(C)c2cc1OC` [Ex. 7.24], the IC50 at human orexin-1 receptor and on human orexin-2 receptor was 33 nM each time.
As to `Cc1cccc(-c2ccc(C)cc2C(=O)N2CCC[C@@]2(C)c2nc3cc(C)c(C)cc3n2C)c1` [Ex. 7.25], the IC50 at human orexin-1 receptor amounted to 15 nM; at human orexin-2 receptor, 18 nM.
For `Cc1cccc(-c2ccc(C)cc2C(=O)N2CCC[C@@]2(C)c2nc3cc(C)c(C)cc3n2CC2CC2)c1` [Ex. 7.26], in that order: 42 nM and 54 nM.
In the same order, the values of `CCn1c([C@]2(C)CCCN2C(=O)c2cc(C)ccc2-c2cccc(C)c2)nc2cc(C)c(C)cc21` [Ex. 7.27] are 23 nM and 17 nM.
For `Cc1cccc(-c2ccc(C)cc2C(=O)N2CCC[C@@]2(C)c2nc3cc(C)c(C)cc3n2CCF)c1` [Ex. 7.28], in that order: 14 nM and 19 nM.
In the case of `COCCn1c([C@]2(C)CCCN2C(=O)c2cc(C)ccc2-c2cccc(C)c2)nc2cc(C)c(C)cc21` [Ex. 7.29], the IC50 came out at 23 nM on human orexin-1 receptor and 70 nM at human orexin-2 receptor.
In the same order, the values of `Cc1ccc(-c2cccc(F)c2)c(C(=O)N2CCC[C@@]2(C)c2nc3cc(C)c(C)cc3n2C)c1` [Ex. 7.30] are 9 nM and 12 nM.
In the case of `CCn1c([C@]2(C)CCCN2C(=O)c2cc(C)ccc2-c2cccc(F)c2)nc2cc(C)c(C)cc21` [Ex. 7.31], the IC50 on human orexin-1 receptor worked out at 8 nM; at human orexin-2 receptor, 19 nM.
In the case of `Cc1ccc(-n2nccn2)c(C(=O)N2CCC[C@@]2(C)c2nc3cc(F)c(Br)cc3n2C)c1` [Ex. 7.32], the concentration for half-maximal inhibition (IC50) at human orexin-1 receptor worked out at 7 nM; at human orexin-2 receptor it was 124 nM.
With `Cc1nc(C(=O)N2CCC[C@@]2(C)c2nc3c(C)c(Cl)ccc3n2C)c(-c2cccc(Cl)c2)s1` [Ex. 7.33], the IC50 on human orexin-1 receptor came to 1 nM; on human orexin-2 receptor it was 3 nM.
Take `Cc1ccc(-c2cccc(F)c2)c(C(=O)N2CCC[C@@]2(C)c2nc3cc(C)c(C)cc3n2CC2CC2)c1` [Ex. 7.34]: the IC50 stood at 16 nM on human orexin-1 receptor and 84 nM at human orexin-2 receptor.
In the same order, the values of `Cc1ccc(-c2cccc(F)c2)c(C(=O)N2CCC[C@@]2(C)c2nc3cc(C)c(C)cc3n2CCF)c1` [Ex. 7.35] are 6 nM and 20 nM.
Take `COCCn1c([C@]2(C)CCCN2C(=O)c2cc(C)ccc2-c2cccc(F)c2)nc2cc(C)c(C)cc21` [Ex. 7.36]: the IC50 stood at 16 nM at human orexin-1 receptor and 115 nM at human orexin-2 receptor.
In the same order, the values of `Cc1ccc(-c2ccc(C)cc2C(=O)N2CCC[C@@]2(C)c2nc3cc(C)c(C)cc3n2C)cc1` [Ex. 7.37] are 11 nM and 20 nM.
As to `CCn1c([C@]2(C)CCCN2C(=O)c2cc(C)ccc2-c2ccc(C)cc2)nc2cc(C)c(C)cc21` [Ex. 7.38], the IC50 on human orexin-1 receptor amounted to 8 nM; at human orexin-2 receptor, 30 nM.
In the same order, the values of `Cc1ccc(-c2ccc(C)cc2C(=O)N2CCC[C@@]2(C)c2nc3cc(C)c(C)cc3n2CC2CC2)cc1` [Ex. 7.39] are 43 nM and 61 nM.
As for `Cc1ccc(-c2ccc(C)cc2C(=O)N2CCC[C@@]2(C)c2nc3cc(C)c(C)cc3n2CCF)cc1` [Ex. 7.40], the IC50 on human orexin-1 receptor was found to be 23 nM; at human orexin-2 receptor it was 39 nM.
In the case of `COCCn1c([C@]2(C)CCCN2C(=O)c2cc(C)ccc2-c2ccc(C)cc2)nc2cc(C)c(C)cc21` [Ex. 7.41], the results for the IC50 at human orexin-1 receptor and on human orexin-2 receptor were 44 nM and 106 nM, respectively.
In the same order, the values of `COc1cccc(-c2ccc(C)cc2C(=O)N2CCC[C@@]2(C)c2nc3cc(C)c(C)cc3n2C)c1` [Ex. 7.42] are 38 nM and 28 nM.
In the same order, the values of `Cc1ccc(-c2ccccc2F)c(C(=O)N2CCC[C@@]2(C)c2nc3cc(C)c(C)cc3n2C)c1` [Ex. 7.43] are 24 nM and 42 nM.
For `CCn1c([C@]2(C)CCCN2C(=O)c2cc(C)ccc2-c2cccc(OC)c2)nc2cc(C)c(C)cc21` [Ex. 7.44], in that order: 21 nM and 35 nM.
For the compound `CCn1c([C@]2(C)CCCN2C(=O)c2cc(C)ccc2-c2ccccc2F)nc2cc(C)c(C)cc21` [Ex. 7.45], the IC50 amounted to 31 nM on human orexin-1 receptor and 60 nM on human orexin-2 receptor.
In the same order, the values of `COCCn1c([C@]2(C)CCCN2C(=O)c2cc(C)ccc2-n2nccn2)nc2cc(OC)c(OC)cc21` [Ex. 7.46] are 78 nM and 77 nM.
For `COc1cc2nc([C@]3(C)CCCN3C(=O)c3cc(C)ccc3-n3nccn3)n(CC3CC3)c2cc1OC` [Ex. 7.47], in that order: 39 nM and 60 nM.
For `COc1cc2nc([C@]3(C)CCCN3C(=O)c3cc(C)ccc3-n3nccn3)n(CCF)c2cc1OC` [Ex. 7.48], in that order: 33 nM and 40 nM.
In the case of `COc1cccc(-c2ccc(C)cc2C(=O)N2CCC[C@@]2(C)c2nc3cc(C)c(C)cc3n2CC2CC2)c1` [Ex. 7.49], the IC50 was 96 nM at human orexin-1 receptor and 173 nM on human orexin-2 receptor.
For `Cc1ccc(-c2ccccc2F)c(C(=O)N2CCC[C@@]2(C)c2nc3cc(C)c(C)cc3n2CC2CC2)c1` [Ex. 7.50], in that order: 66 nM and 171 nM.
Regarding `COc1cccc(-c2ccc(C)cc2C(=O)N2CCC[C@@]2(C)c2nc3cc(C)c(C)cc3n2CCF)c1` [Ex. 7.51], the IC50 at human orexin-1 receptor was 19 nM; at human orexin-2 receptor, 27 nM.
For `Cc1ccc(-c2ccccc2F)c(C(=O)N2CCC[C@@]2(C)c2nc3cc(C)c(C)cc3n2CCF)c1` [Ex. 7.52], in that order: 27 nM and 60 nM.
In the same order, the values of `COCCn1c([C@]2(C)CCCN2C(=O)c2cc(C)ccc2-c2cccc(OC)c2)nc2cc(C)c(C)cc21` [Ex. 7.53] are 46 nM and 190 nM.
Consider `COCCn1c([C@]2(C)CCCN2C(=O)c2cc(C)ccc2-c2ccccc2F)nc2cc(C)c(C)cc21` [Ex. 7.54], for which the IC50 came to 87 nM on human orexin-1 receptor and 270 nM at human orexin-2 receptor.
For `Cc1ccc(-n2nccn2)c(C(=O)N2C[C@@H](F)C[C@H]2c2nc3ccc(Cl)c(C)c3[nH]2)c1` [Example 2.1, ((2S,4S)-2-(6-chloro-7-methyl-1H-benzo[d]imidazol-2-yl)-4-fluoropyrrolidin-1-yl)(5-methyl-2-(2H-1,2,3-triazol-2-yl)phenyl)methanone], in that order: 56 nM and 53 nM.
